Laboratory results taken from patent US20210269434A1, “TRICYCLIC COMPOUNDS AS INHIBITORS OF KRAS” (Incyte Corporation, priority 2020, published 2021).

Experiments:
[1] = test system: MIA PaCa-2 (KRAS G12C) cells; assay: Cellular pERK HTRF assay (KRAS_G12C pERK); format: cell-based, human; conditions: Homo sapiens, MIA PaCa-2, 4 hours incubation, read-out: G12C_pERK
In short: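 MIA PaCa-2 cells plated overnight, then exposed to compound for 4 h at 37 °C (G12C compounds). Phospho-ERK1/2 measured in lysates by HTRF (665/620 nm) after overnight antibody incubation; IC50 from percent inhibition versus log concentration.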

[2] = biological target: KRAS G12C (Homo sapiens, UniProt P01116, G12C); assay: GDP-GTP exchange assay (KRAS_G12C exchange); format: biochemical; conditions: bodipy-GDP loaded KRAS G12C 2.5 nM, SOS1 150 nM, GppNHp; 2 hours pre-incubation, 2 hours reaction; read-out: G12C_exchange
KRAS G12C, sequence (P01116 1-188 isoform P01116-2 G12C): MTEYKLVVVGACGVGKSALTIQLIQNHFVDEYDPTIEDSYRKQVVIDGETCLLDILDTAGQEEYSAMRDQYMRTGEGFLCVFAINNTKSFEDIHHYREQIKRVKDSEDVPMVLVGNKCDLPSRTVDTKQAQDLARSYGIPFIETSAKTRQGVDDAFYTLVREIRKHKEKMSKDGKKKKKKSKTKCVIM
In short: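 Fluorescence exchange of bodipy-GDP for GppNHp, SOS1-driven, read at 485/520 nm; IC50 from four-parameter variable-slope fit. Both mutants used 2.5 nM final labelled protein and a 2 h compound pre-incubation. G12C reaction had 500 uM GppNHp and 150 nM SOS1 for 2 h; G12D ran 4 h.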

C=CC(=O)N1CC[C@H](n2nnc3c(N4CC(N(C)C)C4)nc4c(F)c(-c5c(C)c(Cl)cc6[nH]ncc56)c(C#N)cc4c32)C[C@H]1CC#N [Example 169, 1-((2S,4S)-1-acryloyl-2-(cyanomethyl)piperidin-4-yl)-7-(6-chloro-5-methyl-1H-indazol-4-yl)-4-(3-(dimethylamino)azetidin-1-yl)-6-fluoro-1H-[1,2,3]triazolo[4,5-c]quinoline-8-carbonitrile]
IC50 [1]: ≤ 100 nM | IC50 [2]: ≤ 100 nM

CC#CC(=O)N1CC[C@H](n2nnc3c(N4CC(N(C)C)C4)nc4c(F)c(-c5c(C)c(Cl)cc6[nH]ncc56)c(C#N)cc4c32)C[C@H]1CC#N [Example 170, 1-((2S,4S)-1-(but-2-ynoyl)-2-(cyanomethyl)piperidin-4-yl)-7-(6-chloro-5-methyl-1H-indazol-4-yl)-4-(3-(dimethylamino)azetidin-1-yl)-6-fluoro-1H-[1,2,3]triazolo[4,5-c]quinoline-8-carbonitrile]
IC50 [1]: ≤ 100 nM | IC50 [2]: ≤ 100 nM

C=CC(=O)N1CC[C@H](n2cnc3c(N4CC(N(C)C)C4)nc4cc(-c5cccc(Cl)c5C)c(Cl)cc4c32)C[C@H]1CC#N [Example 171, 2-((2S,4S)-1-acryloyl-4-(8-chloro-7-(3-chloro-2-methylphenyl)-4-(3-(dimethylamino)azetidin-1-yl)-1H-imidazo[4,5-c]quinolin-1-yl)piperidin-2-yl)acetonitrile]
IC50 [1]: ≤ 100 nM | IC50 [2]: ≤ 100 nM

C=CC(=O)N1CC[C@H](n2nnc3c(N4CC(N(C)C)C4)nc4cc(-c5cccc(Cl)c5C)c(C)cc4c32)C[C@H]1CC#N [Example 172, 2-((2S,4S)-1-acryloyl-4-(7-(3-chloro-2-methylphenyl)-4-(3-(dimethylamino)azetidin-1-yl)-8-methyl-1H-[1,2,3]triazolo[4,5-c]quinolin-1-yl)piperidin-2-yl)acetonitrile]
IC50 [1]: ≤ 100 nM | IC50 [2]: ≤ 100 nM

C=CC(=O)N1CC[C@H](n2cnc3c(-c4cccnc4C)nc4c(F)c(-c5cccc(Cl)c5C)c(Cl)cc4c32)C[C@H]1CC#N [Example 173, 2-((2S,4S)-1-acryloyl-4-(8-chloro-7-(3-chloro-2-methylphenyl)-6-fluoro-4-(2-methylpyridin-3-yl)-1H-imidazo[4,5-c]quinolin-1-yl)piperidin-2-yl)acetonitrile]
IC50 [1]: ≤ 100 nM | IC50 [2]: ≤ 100 nM

C=CC(=O)N1CC[C@H](n2nnc3c(-c4cccnc4C)nc4c(F)c(-c5cccc(Cl)c5C)c(Cl)cc4c32)C[C@H]1CC#N [Example 174, 2-((2S,4S)-1-acryloyl-4-(8-chloro-7-(3-chloro-2-methylphenyl)-6-fluoro-4-(2-methylpyridin-3-yl)-1H-[1,2,3]triazolo[4,5-c]quinolin-1-yl)piperidin-2-yl)acetonitrile]
IC50 [1]: ≤ 100 nM | IC50 [2]: ≤ 100 nM

CN(C)C/C=C/C(=O)N1CC[C@H](n2cnc3c(N4CC(N(C)C)C4)nc4c(F)c(-c5cncc6ccccc56)c(Cl)cc4c32)C[C@H]1CC#N [Example 175, 2-((2S,4S)-4-(8-chloro-4-(3-(dimethylamino)azetidin-1-yl)-6-fluoro-7-(isoquinolin-4-yl)-1H-imidazo[4,5-c]quinolin-1-yl)-1-((E)-4-(dimethylamino)but-2-enoyl)piperidin-2-yl)acetonitrile]
IC50 [1]: ≤ 100 nM | IC50 [2]: ≤ 100 nM

Cc1c(Cl)cc2[nH]ncc2c1-c1c(Cl)cc2c(nc(N3CC(N(C)C)C3)c3ncn([C@H]4CCN(C(=O)/C=C/CN(C)C)[C@H](CC#N)C4)c32)c1F [Example 176, 2-((2S,4S)-4-(8-chloro-7-(6-chloro-5-methyl-1H-indazol-4-yl)-4-(3-(dimethylamino)-azetidin-1-yl)-6-fluoro-1H-imidazo[4,5-c]quinolin-1-yl)-1-((E)-4-(dimethylamino)but-2-enoyl)piperidin-2-yl)acetonitrile]
IC50 [1]: ≤ 100 nM | IC50 [2]: ≤ 100 nM

CC#CC(=O)N1CC[C@H](n2cnc3c(N4CC(N(C)C)C4)nc4c(F)c(-c5c(C)c(Cl)cc6[nH]ncc56)c(Cl)cc4c32)C[C@H]1CC#N [Example 177a, 2-((2S,4S)-1-(but-2-ynoyl)-4-(8-chloro-7-(6-chloro-5-methyl-1H-indazol-4-yl)-4-(3-(dimethylamino)azetidin-1-yl)-6-fluoro-1H-imidazo[4,5-c]quinolin-1-yl)piperidin-2-yl)acetonitrile]
IC50 [1]: ≤ 100 nM | IC50 [2]: ≤ 100 nM

Cc1c(Cl)cc2[nH]ncc2c1-c1c(Cl)cc2c(nc(N3CC(N(C)C)C3)c3nnn([C@H]4CCN(C(=O)/C=C/CN(C)C)[C@H](CC#N)C4)c32)c1F [Example 179a, 2-((2S,4S)-4-(8-chloro-7-(6-chloro-5-methyl-1H-indazol-4-yl)-4-(3-(dimethylamino)-azetidin-1-yl)-6-fluoro-1H-[1,2,3]triazolo[4,5-c]quinolin-1-yl)-1-((E)-4-(dimethyl-amino)but-2-enoyl)piperidin-2-yl)acetonitrile]
IC50 [1]: ≤ 100 nM | IC50 [2]: ≤ 100 nM

CC#CC(=O)N1CC[C@H](n2cnc3c(OC[C@@H]4CCCN4C)nc4c(F)c(-c5c(C)c(Cl)cc6[nH]ncc56)c(Cl)cc4c32)C[C@H]1CC#N [Example 180, 2-((2S,4S)-1-(but-2-ynoyl)-4-(8-chloro-7-(6-chloro-5-methyl-1H-indazol-4-yl)-6-fluoro-4-(((S)-1-methylpyrrolidin-2-yl)methoxy)-1H-imidazo[4,5-c]quinolin-1-yl)piperidin-2-yl)acetonitrile]
IC50 [1]: ≤ 100 nM | IC50 [2]: ≤ 100 nM

Cc1c(Cl)cc2[nH]ncc2c1-c1c(Cl)cc2c(nc(OC[C@@H]3CCCN3C)c3ncn([C@H]4CCN(C(=O)/C=C/CN(C)C)[C@H](CC#N)C4)c32)c1F [Example 181a, 2-((2S,4S)-4-(8-chloro-7-(6-chloro-5-methyl-1H-indazol-4-yl)-6-fluoro-4-(((S)-1-methylpyrrolidin-2-yl)-methoxy)-1H-imidazo[4,5-c]quinolin-1-yl)-1-((E)-4-(dimethylamino)but-2-enoyl)piperidin-2-yl)acetonitrile]
IC50 [1]: ≤ 100 nM | IC50 [2]: ≤ 100 nM

CC#CC(=O)N1CC[C@H](n2nnc3c(OC[C@@H]4CCCN4C)nc4c(F)c(-c5c(C)c(Cl)cc6[nH]ncc56)c(Cl)cc4c32)C[C@H]1CC#N [Example 182, 2-((2S,4S)-1-(but-2-ynoyl)-4-(8-chloro-7-(6-chloro-5-methyl-1H-indazol-4-yl)-6-fluoro-4-(((S)-1-methylpyrrolidin-2-yl)methoxy)-1H-[1,2,3]triazolo[4,5-c]quinolin-1-yl)piperidin-2-yl)acetonitrile]
IC50 [1]: ≤ 100 nM | IC50 [2]: ≤ 100 nM

Cc1c(Cl)cc2[nH]ncc2c1-c1c(Cl)cc2c(nc(OC[C@@H]3CCCN3C)c3nnn([C@H]4CCN(C(=O)/C=C/CN(C)C)[C@H](CC#N)C4)c32)c1F [Example 183a, 2-((2S,4S)-4-(8-chloro-7-(6-chloro-5-methyl-1H-indazol-4-yl)-6-fluoro-4-(((S)-1-methylpyrrolidin-2-yl)-methoxy)-1H-[1,2,3]triazolo-[4,5-c]quinolin-1-yl)-1-((E)-4-(dimethylamino)but-2-enoyl)piperidin-2-yl)acetonitrile]
IC50 [1]: ≤ 100 nM | IC50 [2]: ≤ 100 nM
